Results reported in patent publication US4210749A, “Substituted 1,2,4,5-tetrahydro-3H,3 benzazepines” (priority 1979, dated 1980).
Where a name gives a salt, the structure may show the parent alone.

What was measured:
[1] = Analgesic activity, writhing method; assay type: in vivo
[2] = Narcotic antagonism I.P., Table IV; assay type: in vivo
[3] = system: isolated segments of guinea pig ileum (histamine); test: Antihistaminic activity: block of histamine in isolated segments of guinea pig ileum
[4] = Analgesic activity, hot plate method; assay type: in vivo
[5] = Analgesic activity in hot plate and writhing tests, overall comparison; conditions: for Analgesic efficacy by route of administration: oral vs parenteral
[6] = Mouse tail stimulation (MST), Table IV; assay type: in vivo; design: unit not given here; conditions: S.C.
[7] = system: isolated segments of guinea pig ileum (acetylcholine); test: Anticholinergic activity: block of acetylcholine in isolated segments of guinea pig ileum
[8] = I.P. symptomatology (highest tolerated dose, median lethal dose), Table IV; assay type: in vivo; conditions: in vivo, ip; for MTD: read-out: HTD (highest tolerated dose)
[9] = system: sciatic block; test: Local anesthetic sciatic block, Table IV; assay type: in vivo; conditions: 1%
[10] = system: morphine analgesia; assay type: in vivo, rat; conditions: for Narcotic antagonist potency relative to pentazocine: Table II
[11] = in vivo
[12] = in vivo; remark: listed apart in the source
[13] = system: phenylbenzoquinone writhing; test: Phenylbenzoquinone (PBQ) writhing analgesia, Table IV; assay type: in vivo; conditions: sc; S.C.; marked * Median effective dose

| Compound | ED50 ([1]; po) [mg/kg] | Narcotic Antagonism [2] | Conc. for 50% block of Histamine [3] [μg/20 ml] | ED50 ([4]; ip) [mg/kg] | ED50 ([4]; po) [mg/kg] | MST (mouse tail stimulation) [6] | Conc. for 50% block of Acetylcholine [7] [μg/20 ml] | LD50 [8] [mg/kg] | MTD [8] [mg/kg] | Local Anesthetic Sciatic Block [9] | further results |
| --- | --- | --- | --- | --- | --- | --- | --- | --- | --- | --- | --- |
| c1ccc2c(c1)CCN(CC1CC1)CC2 [Example 37, 3-Cyclopropylmethyl-1,2,4,5-tetrahydro-3H,3-benzazepine hydrochloride] | 49 | Negative | 20 | 12 | 37 | 10 | 540 | 60 | 10 | – | Writhing test activity relative to pentazocine ([1]; oral route): approximately twice as active as pentazocine; ED50 ([1]; sc): > 18 mg/kg; Analgesic efficacy by route of administration [5]: active by the oral route |
| C=CCN1CCc2ccc(OC)cc2CC1C (stereo not shown) [Example 38, 3-Allyl-8-methoxy-2-methyl-1,2,4,5-tetrahydro-3H,3-benzazepine hydrochloride] | – | Positive | – | – | – | > 10 | – | 200 | 10 | – | – |
| CN1[C@@H]2CC[C@H]1C[C@@H](OC(=O)C(CO)c1ccccc1)C2 (stereo partly shown) [Atropine, reference compound] | – | – | 37 | – | – | – | 0.0035 | – | – | – | – |
| COc1ccc2c(c1)CCN(CC1CC1)CC2 [Example 7, 3-Cyclopropylmethyl-7-methoxy-1,2,4,5-tetrahydro-3H,3-benzazepine] | – | Negative | 20 | – | – | – | 220 | 100 | 40 | Positive | – |
| C=CCN1CCc2ccc(OC)cc2CC1 [Example 14, 3-Allyl-7-methoxy-1,2,4,5-tetrahydro-3H,3-benzazepine] | > 178 | Positive | – | 42 | > 178 | – | – | 80 | 60 | Positive | ED50 ([1]; sc): > 56 mg/kg; Narcotic antagonist potency relative to pentazocine [10]: about equipotent to pentazocine; LD50 ([11]; po): > 1000 mg/kg; NOAEL ([12]; po): 178 mg/kg |
| CC(C)=CCN1CCc2ccc(O)cc2CC1C (stereo not shown) [Example 34, 3-(3,3-Dimethylallyl)-8-hydroxy-2-methyl-1,2,4,5-tetrahydro-3H,3-benzazepine hydrochloride] | – | Positive | – | – | – | > 40 | – | 60 | 10 | Positive | – |
| C=CCN1CC[C@]23c4c5ccc(O)c4O[C@H]2[C@@H](O)C=C[C@H]3[C@H]1C5 [Nalorphine, reference compound] | – | – | – | – | – | – | – | – | – | – | Antagonism of Morphine Analgesia, times more active than compounds listed above ([10]; rat, in vivo, sc): 20-100 times |
| COc1ccc2c(c1)CCN(CCc1ccccc1)CC2 [Example 24, 7-Methoxy-3-phenethyl-1,2,4,5-tetrahydro-3H,3-benzazepine] | > 178 | – | 10 | 12 | > 178 | – | 74 | > 200 | > 50 | Positive | ED50 ([1]; sc): ~11 mg/kg; Narcotic antagonist potency relative to pentazocine [10]: about equipotent to pentazocine; LD50 ([11]; po): > 1000 mg/kg; Analgesic activity ranking [5]: most active compounds; Separation between effective dose and toxic or lethal doses [5]: greatest separation between effective dose and toxic or lethal doses; NOAEL ([12]; po): 178 mg/kg |
| COc1ccc2c(c1)CCN(CC=Cc1ccccc1)CC2 [Example 28, 7-Methoxy-3-(3-phenylallyl)-1,2,4,5-tetrahydro-3H,3-benzazepine] | 120 | Positive | – | > 18 | 125 | 10 | – | 60 | 20 | – | ED50 ([1]; sc): > 18 mg/kg; Narcotic antagonist potency relative to pentazocine [10]: about equipotent to pentazocine; Analgesic efficacy by route of administration [5]: active by the oral route |
| Oc1ccc2c(c1)CCN(CC=Cc1ccccc1)CC2 [Example 29, 7-Hydroxy-3-(3-phenylallyl)-1,2,4,5-tetrahydro-3H,3-benzazepine] | 210 | – | – | 230 | > 1000 | – | – | – | – | – | LD50 ([11]; po): > 1000 mg/kg; NOAEL ([12]; ip): 300 mg/kg; NOAEL ([12]; po): 1000 mg/kg |
| COc1ccc2c(c1)CCN(C)CC2 [Example 18, 7-Methoxy-3-methyl-1,2,4,5-tetrahydro-3H,3-benzazepine] | > 180 | Negative | – | 20 | 140 | – | – | 80 | 25 | – | ED50 ([1]; sc): > 32 mg/kg; Analgesic efficacy by route of administration [5]: active by the oral route |
| COc1ccc2c(c1)CC(C)N(CCN1CCN(c3ccccc3)CC1)CC2 (stereo not shown) [Example 40, 8-Methoxy-2-methyl-3-[2-(4-phenyl-1-piperazinyl)-ethyl]-1,2,4,5-tetrahydro-3H,3-benzazepine dihydrochloride] | – | Negative | – | – | – | – | – | > 100 | 30 | Positive | ED50 [13]: > 30 mg/kg |
| COc1ccc2c(c1)CCN(CCN1CCN(c3ccccc3)CC1)CC2 [Example 31, 7-Methoxy-3-[2-(4-phenyl-1-piperazinyl)ethyl]-1,2,4,5-tetrahydro-3H,3-benzazepine] | > 100 | Negative | – | ~8 | ~80 | 20 | – | 80 | 30 | Positive | LD50 ([11]; ip): ~80 mg/kg; LD50 ([11]; po): ~300 mg/kg; Analgesic activity ranking [5]: most active compounds; Separation between effective dose and toxic or lethal doses [5]: greatest separation between effective dose and toxic or lethal doses; NOAEL ([12]; ip): 32 mg/kg; NOAEL ([12]; po): 100 mg/kg |
| Oc1ccc2c(c1)CCN(CCc1ccccc1)CC2 [Example 25, 7-Hydroxy-3-phenethyl-1,2,4,5-tetrahydro-3H,3-benzazepine] | > 178 | – | – | 26 | > 178 | – | – | – | – | – | LD50 ([11]; po): > 1000 mg/kg; NOAEL ([12]; po): 178 mg/kg |
| COc1ccc2c(c1)CCNCC2 [Example 1, 7-Methoxy-1,2,4,5-tetrahydro-3H,3-benzazepine] | – | Negative | – | – | – | > 3 | – | 60 | 3 | Positive | – |
| COc1ccc2c(c1)CC(C)N(C)CC2 (stereo not shown) [Example 39, 8-Methoxy-2,3-dimethyl-1,2,4,5-tetrahydro-3H,3-benzazepine hydrochloride] | – | Negative | – | – | – | – | – | ~150 | 10 | Positive | ED50 [13]: > 30 mg/kg |
| CC1Cc2cc(O)ccc2CCN1CC1CC1 (stereo not shown) [Example 41, 3-Cyclopropylmethyl-8-hydroxy-2-methyl-1,2,4,5-tetrahydro-3H,3-benzezepine hydrochloride] | – | Negative | – | – | – | > 30 | – | ~60 | ~3 | Positive | – |
| CC(=O)Oc1ccc2c(c1)CCN(CC=C(C)C)CC2 [Example 5, 7-Acetoxy-3-(3,3-dimethylallyl)-1,2,4,5-tetrahydro-3H,3-benzazepine hydrochloride] | – | Positive | – | – | – | > 30 | – | ~200 | ~10 | Positive | – |
| COc1ccc2c(c1)CC(C)N(CCc1ccccc1)CC2 (stereo not shown) [Example 36, 8-Methoxy-2-methyl-3-phenethyl-1,2,4,5-tetrahydro-3H,3-benzazepine hydrochloride] | – | Negative | – | – | – | 10 | – | 60 | 10 | Insoluble | – |
| COc1ccc2c(c1)CCN(C(C)Cc1ccccc1)CC2 (racemic) [Example 26, 7-Methoxy-3-(1-methyl-2-phenylethyl)-1,2,4,5-tetrahydro-3H,3-benzazepine] | – | – | 54 | – | – | – | 94 | – | – | – | – |
| CC(C)=CCN1CCC2(C)c3cc(O)ccc3CC1C2C (stereo not shown) [Pentazocine, reference compound] | 70 | – | – | 100 | > 316 | – | – | – | – | – | LD50 ([11]; ip): > 600 mg/kg; LD50 ([11]; po): ~800 mg/kg; NOAEL ([12]; ip): 316 mg/kg; NOAEL ([12]; po): 316 mg/kg |
| CCCN1CCc2ccc(O)cc2CC1 [Example 23, 7-Hydroxy-3-n-propyl-1,2,4,5-tetrahydro-3H,3-benzazepine] | – | Positive | 75 | – | – | – | > 1000 | 50 | 20 | Positive | – |
| CC(C)=CCN1CCc2ccc(O)cc2CC1 [Example 4, 3-(3,3-Dimethylallyl)-7-hydroxy-1,2,4,5-tetrahydro-3H,3-benzazepine] | – | Positive | 76 | – | – | > 56 | 120 | 96 | 30 | Positive | Narcotic antagonist potency relative to pentazocine [10]: more potent antagonist than pentazocine |
